Article PMC9289467, “A Novel Multifunctional 5,6-Dimethoxy-Indanone-Chalcone-Carbamate Hybrids Alleviates Cognitive Decline in Alzheimer’s Disease by Dual Inhibition of Acetylcholinesterase and Inflammation” (Frontiers in Aging Neuroscience, 2022)

What was measured:
[1] = Single-dose pharmacokinetics in mice (plasma and brain, UPLC-TSQ/MS); format: in vivo, C57BL/6J mice; conditions: mouse
Protocol: To determine the pharmacokinetics of AP5 in mice, the mice were administered a single dose of AP5 by i.v. and oral gavage dose routes. The plasma and brain homogenate were detected by UPLC-TSQ/MS(Thermo Fisher Scientific, Waltham, MA, United States). The plasma drug concentrations were analyzed for PK data by DAS (Drug and Statistics) Version 3.0 (BioGuider Corporation, Shanghai, China). Bioavailability (F%) after oral administration was calculated as AUCINF p.o./AUCINF i.v./4 × 100. AUCINF p.o. and AUCINF i.v. represent the area under the plasma concentration–time curve extrapolated to infinity after single-dose per os and intravenous injection, respectively. The extent of brain penetration was measured by the brain-to-plasma distribution ratio (B/P). The B/P value was calculated as: AUCINFbrain/AUCINF plasma × 100. AUCINF brain represents the area under the brain concentration–time curve extrapolated to infinity after a single-dose per os.
We next determine the pharmacokinetic profile of AP5 in male C57BL/6J mice given a single intravenous (i.v.) dose of 10 mg/kg or single per os (p.o.) dose of 40 mg/kg, respectively. […] Importantly, we determined AP5 in the brain homogenate with the highest concentration of 95.3 ng/mL at 2 h (Figures 1D,E). […]
Supplementary materials and methods
Prepations ofspecimen for pharmacokinetics analysis
24 h afterdosing. Brains were collected at0, 0.25, 0.5,2, 4,8 and 24 h after administration.Plasma extractions were performed by adding 90 μL methanol and 2 μL internalstandard letrozole (500 ng/mL) to a30 µL plasma sample. Brain samples were homogenized in 1 mL PBS per gram brain tissueby handheld homogenizer.
Then 90 μL methanol and 2 μL letrozolewere added to 30 µl brainhomogenates. The samples were vortexed for 3 min and centrifuged 15 min at25,000 g.The plasma and brainhomogenate were analyzed by UPLC-TSQ/MS (Thermo Fisher Scientific, Waltham, MA, USA). Samples were compared to a calibrationcurve prepared ina similarmanner by spiking blank controlplasma or homogenate with standards prepared inmethanol and then extractedas above. […]

recognition memory = experiment: Spatial object location task; format: in vivo; conditions: at 24 h, vs APP/PS1 mice without treatment
Protocol: (§1) APP/PS1 mice of ages 6 months were randomly divided into vehicle (APP/PS1, n = 10) and treatment groups (AP5, n = 10), which were intragastrically administered with AP5 (40 mg/kg) once daily for consecutive 5 months. AP5 was dissolved in distilled water containing 1% sodium carboxymethyl cellulose.
To investigate whether AP5 treatment plays a key role in cognition improvement of APP/PS1 mice models, the five different behavioral tests were sequentially carried out in the following order: open field, novel object recognition task, spatial object-location task, Y-maze, and Morris water maze (MWM). AP5 was also administered daily during the test periods. […]
For the spatial object location task (an object moved to a new location), mice first explored the two objects placed in two corners of the open field for 5 min in training period. After 1 h or 24 h, the mice received a 5 min retention trial with a new spatial configuration with an object moved from one corner to the opposite corner of the open field.The discrimination index was calculated and defined as: (time spent exploring the displaced object-time spent exploring nondisplaced objects) / total exploration time for the two objects during the 5 min retention trial. […]
guided to platform and allowed to stay on it for 30 s. The time (escape latency) for each mouse to find the way and reach the target platform was analyzed. […]

CD11c within microglia = experiment: CD11c and Iba1 co-immunostaining (DAM marker); format: in vivo; conditions: AP5-treated vs APP/PS1 mice
Protocol: as §1
The fixed hemibrains were paraffin-embedded and sectioned in the coronal plane. The slices were deparaffinized with xylene and rehydrated by a series of gradient alcohols. Antigen retrieval through microwave boiling was performed with 10 mM sodium citrate solution at pH 6.0. The slices were cooled down to room temperature and then rinsed in PBS solution. Then the slices were incubated in 10% goat serum blocking solution for 1 h followed by primary antibodies overnight at 4°C. The next day, the slides were labeled with biotinylated or fluorescent secondary antibodies. Slices were washed three times with PBS before being mounted. Images were captured using a SpinSR10 scanner (Olympus, Tokyo, Japan). […]
Cambridge, UK) or anti-GFAP (1:100, bs-0199R, Bioss) at4 °C. After being washed with PBS, slides were treated with a biotinylated secondary antibody for 30 min and with streptavidin-peroxidase complex for another 30 min at 37°C. Immunostaining was visualized with 3,3′-diaminobenzidine (DAB, ZL1-9018, Zhongshan Jinqiao, Beijing, China ).The images were acquired using a Nikon microscope (Nikon, […]

[2] = male, C57BL/6J, brain homogenate, po, brain, p.o. 40 mg/kg
[3] = male, C57BL/6J, iv, plasma, i.v. 10 mg/kg
[4] = male, C57BL/6J, plasma, iv, 10 mg/kg, i.v. 10 mg/kg
[5] = male, C57BL/6J, plasma, po, 40 mg/kg, p.o. 40 mg/kg
[6] = male, C57BL/6J, po, plasma, p.o. 40 mg/kg

CCN(C)C(=O)Oc1cccc(/C=C2\Cc3cc(OC)c(OC)cc3C2=O)c1 [AP5, (E)-3-((5,6-dimethoxy-1-oxo-1,3-dihydro-2H-inden-2-ylidene)-methyl)phenylethyl(methyl)carbamate]
B/P (brain-to-plasma distribution ratio, brain penetration) ([1]; AUCINF brain/AUCINF plasma × 100, p.o. 40 mg/kg, 40 mg/kg): 10.23% | Cl ([1]; brain, p.o. 40 mg/kg): 896.2 mL/min/kg | Vss ([1]; brain, p.o. 40 mg/kg): 412.6 L/kg | AUC(0-inf) [1, 2]: 744 ng·h/mL | AUC(0-t) [1, 2]: 706 ng·h/mL | half-life [1, 2]: 5.32 h | AUC(0-inf) [1, 3]: 2700 ng·h/mL | AUC(0-t) [1, 3]: 2600 ng·h/mL | clearance [1, 3]: 125 mL/min/kg | half-life [1, 3]: 3.34 h | Vd ([1]; male, C57BL/6J, iv, plasma, i.v. 10 mg/kg, read-out: Vss): 36.3 L/kg | Tmax ([1]; male, C57BL/6J, brain homogenate, po, 40 mg/kg, brain, p.o. 40 mg/kg): 1.5 h | Cmax ([1]; male, C57BL/6J, brain homogenate, po, 40 mg/kg, p.o. 40 mg/kg): 95.4 ng/mL | Kp ([1]; male, C57BL/6J, brain/plasma, po, 40 mg/kg, AUCINF brain/AUCINF plasma × 100, p.o. 40 mg/kg, read-out: B/P (brain-to-plasma distribution ratio, brain penetration)): > 0.1 | Cmax [1, 4]: 5440 ng/mL | Tmax [1, 4]: 0.083 h | Cmax [1, 5]: 2090 ng/mL | Tmax [1, 5]: 2 h | bioavailability ([1]; male, C57BL/6J, plasma, oral, AUCINF p.o./AUCINF i.v./4 × 100, p.o. 40 mg/kg, i.v. 10 mg/kg, read-out: F (oral bioavailability)): 67.2% | AUC(0-inf) [1, 6]: 7260 ng·h/mL | AUC(0-t) [1, 6]: 6990 ng·h/mL | half-life [1, 6]: 4.72 h | Cl ([1]; plasma, p.o. 40 mg/kg): 45.93 mL/min/kg | Vss ([1]; plasma, p.o. 40 mg/kg): 18.79 L/kg | discrimination index, spatial object location (recognition memory): significantly better | CD11c-positive area within the activated microglia (CD11c within microglia): significantly elevated
